# Results taken from patent US20160015786A1, “MOBILIZING AGENTS AND USES THEREFOR” (MATER MEDICAL RESEARCH INSTITUTE LIMITED, priority 2013, published 2016).
# B1: G-CSF: cytokine granulocyte colony-stimulating factor, the main mobilizing agent used in the clinic; recombinant human G-CSF (Amgen) (protein, UniProt P09919 31-207, looked up)
# Granulocyte …: TPLGPASSLPQSFLLKCLEQVRKIQGDGAALQEKLVSECATYKLCHPEELVLLGHSLGIPWAPLSSCPSQALQLAGCLSQLHSGLFLYQGLLQALEGISPELGPTLDTLQLDVADFATTIWQQMEELGMAPALQPTQGAMPAFASAFQRRAGGVLVASHLQSFLEVSYRVLRHLAQP
# modifications: filgrastim
# How the values were obtained:
# [1] = test system: colony-forming cells (CFCs); assay: Mobilization of colony-forming cells (CFC/CFU) to blood and spleen, colony assays; assay type: in vivo, C57BL/6 mice
# Procedure: Mobilization of colony-forming cells (CFCs) to the blood and spleen were measured (FIG. 1B).
# This was divided into two experiments in which G-CSF was administered for 2 days in one experiment and 4 days in the other (FIG. 2). […] Mobilization of CFCs, phenotypic Lin^−CD41^−Sca1^+Kit^+ HSPCs and Lin^−CD41^− Sca1^+Kit^+CD48^−CD150^+ HSCs were measured in blood and spleens.
# Additional HIF-α potentiating agents in the form of PHD inhibitors were tested for their ability to enhance mobilization induced by G-CSF.
# (§1) At the end of treatment, blood was harvested by cardiac puncture, mice were sacrificed by cervical dislocation and spleens harvested. Femurs were removed, cleaned and the bone marrow was flushed with 1 mL PBS+10% newborn calf serum (NCS).
# The number of phenotypic hematopoietic stem and progenitor cells remaining in the bone marrow following treatment was measured by flow cytometry using antibodies specific for lineage markers (CD3, CD5, CD45R/B220, F4/80, Gr1, CD41, Ter119), Sca-1, Kit, CD48 and CD150. Similarly, the number of phenotypic hematopoietic stem cells mobilized into the blood and spleen were measured. Colony assays were also performed on blood and spleen to determine the number of colony forming cells per mL of blood and per spleen. […] Levels of significance for differences were calculated using the Student's t-test.
# All procedures were approved by the animal experimentation ethics committee of the University of Queensland. […] Plerixafor (AMD3100 octohydrochloride, Tocris Bioscience, Bristol, UK) was injected intraperitoneally as a single 16 mg/kg dose corresponding to 10 mg/kg of AMD3100 base. Tissues were harvested 1 h after Plerixafor administration. […] Control mice were injected with an equivalent volume of saline. At specified time-points, mice were anesthetized with isoflurane before cardiac puncture to harvest blood. Mice were then euthanized by cervical dislocation and BM and bones harvested.
# Optimal concentrations of mouse IL-3, IL-6 and soluble kit ligand were added as conditioned media from stably transfected BHK cell lines. Colonies were counted after 7 days culture at 37° C. in a humidified incubator containing 5% CO2.
# [2] = test system: CD34+ cells; settings: cited from earlier work
# [3] = test system: colony-forming cells (CFCs); settings: Plerixafor; reference (7); cited from earlier work
# [4] = test system: hematopoietic stem and progenitor cells; assay: Phenotypic HSCs, HSPCs and myeloid progenitors in blood, spleen and bone marrow by flow cytometry; assay type: in vivo, C57BL/6 mice
# Procedure: (§2) Additional HIF-α potentiating agents in the form of PHD inhibitors were tested for their ability to enhance mobilization induced by G-CSF. Compound A, Compound B or Compound C, were tested in male, 7 weeks-old C57BL/6 mice. Mice were injected twice daily sub-cutaneously with rhuG-CSF at a dose of 125 μg/kg per injection for four days. Mice were gavaged with 20 mg/kg Compound A, Compound B, Compound C or vehicle control once daily for three days beginning on day 1 of the experiment.
# as §1
# The number of phenotypic hematopoietic stem and progenitor cells remaining in the bone marrow following treatment was measured by flow cytometry using antibodies specific for lineage markers (CD3, CD5, CD45R/B220, F4/80, Gr1, CD41, Ter119), Sca-1, Kit, CD48 and CD150. Similarly, the number of phenotypic hematopoietic stem cells mobilized into the blood and spleen were measured. Colony assays were also performed on blood and spleen to determine the number of colony forming cells per mL of blood and per spleen. All results are presented as mean f standard deviation with n=6 per groups. Levels of significance for differences were calculated using the Student's t-test.
# All procedures were approved by the animal experimentation ethics committee of the University of Queensland. All experiments were performed on nine to twelve-week old C57BL/6 male mice or genetically modified mice back-crossed at least 10 times into C57BL/6. Recombinant human G-CSF (Amgen, Thousand Oaks, Calif.) was injected twice daily subcutaneously at 125 μg/kg per injection for up to 4 consecutive days. Plerixafor (AMD3100 octohydrochloride, Tocris Bioscience, Bristol, UK) was injected intraperitoneally as a single 16 mg/kg dose corresponding to 10 mg/kg of AMD3100 base. Tissues were harvested 1 h after Plerixafor administration. […] Compounds H and J were administered at 60 mg/kg and Compound K was administered at 100 mg/kg. Control mice were injected with an equivalent volume of saline. At specified time-points, mice were anesthetized with isoflurane before cardiac puncture to harvest blood. Mice were then euthanized by cervical dislocation and BM and bones harvested.
# Following flushing with PBS plus 2% NCS, enriched central BM cells were pelleted at 370×g for 5 minutes at 4° C. and resuspended in CD16/CD32 hybridoma 2.4G2 supernatant to block IgGFc receptors. HSCs were stained with the biotinylated lineage antibody cocktail (CD3, CD5, B220, CD11b, Gr-1, Ter119) and biotinylated CD41 together with streptavidin (SAV)-Pacific Blue, anti-Sca-1-PECY7, anti-KIT-APC, CD48-FITC and CD150-PE as previously described (17). Data were acquired on a CyAn (Dako Cytomation) flow cytometer and analyzed following compensation with single color controls using FlowJo software (Tree Star, Ashland, Oreg.).
# [5] = test system: white blood cells; assay: White blood cell number per mL of blood after mobilization treatment; assay type: in vivo, C57BL/6 mice
# Procedure: as §2, §1
# [6] = Spleen weight after mobilization treatment; assay type: in vivo, C57BL/6 mice
# Procedure: Additional HIF-α potentiating agents in the form of PHD inhibitors were tested for their ability to enhance mobilization induced by G-CSF. Compound A, Compound B or Compound C, were tested in male, 7 weeks-old C57BL/6 mice. Mice were injected twice daily sub-cutaneously with rhuG-CSF at a dose of 125 μg/kg per injection for four days. […]
# as §1
# [7] = Example 7: 20 mg/kg + G-CSF vs vehicle + G-CSF, FIGS. 12A-B
# [8] = Example 6: 20 mg/kg + G-CSF vs vehicle + G-CSF, FIG. 10
# [9] = Example 6: 20 mg/kg + G-CSF vs vehicle + G-CSF, FIGS. 8A-B
# [10] = Example 6: blood and spleen, 20 mg/kg + G-CSF vs vehicle + G-CSF, FIGS. 9A-B
# [11] = Example 6: 20 mg/kg + G-CSF vs vehicle + G-CSF, FIG. 11
molecule,measurement,setting,value
"c1cc(CN2CCCNCCNCCCNCC2)ccc1CN1CCCNCCNCCCNCC1 [Plerixafor, 1,1′-[1,4-phenylenebis(methylene)]-bis-1,4,8,11-tetra-azacyclotetradecane]",mobilization of HSPC to the spleen,"[1]; 1 hr following Plerixafor treatment with or without Compound X, FIG. 1D",no significant mobilization
same,enhancement of CFC mobilization in response to G-CSF,"[1]; Plerixafor 16 mg/kg 1 hour prior harvest + 2 days G-CSF, p<0.005",10 fold
same,patients who failed with G-CSF alone who still fail to mobilize adequately,"[2]; G-CSF and Plerixafor, references (8-9)",40%
same,patients who previously failed to mobilize with G-CSF alone who reach the minimal threshold,"[2]; Plerixafor daily 1 hr prior to aphaeresis from day 4 of G-CSF, references (8-9)",approximately 60%
same,time of peak mobilization post-injection,[3],1 h
"CC(C)c1nn(Cc2ccc(-c3ccc(F)cc3)cc2F)c(=O)c(C(=O)NCC(=O)O)c1O [Compound E, {[2-(3,4′-Difluoro-biphenyl-4-ylmethyl)-5-hydroxy-6-isopropyl-3-oxo-2,3-dihydro-pyridazine-4-carbonyl]-amino}-acetic acid]",number of CFUs mobilized from the bone marrow to the blood and spleen,"[1]; Example 7: D 60 mg/kg, E and F 20 mg/kg, + G-CSF vs vehicle + G-CSF, FIG. 13",significantly increased
same,total number of HSCs (LSK48-150+) mobilized from the bone marrow,[4]; [7],significant increase
same,total number of HSPCs (LSK48+ and LSK) mobilized from the bone marrow,[4]; [7],significant increase
same,total number of HSCs and progenitors in the BM,"[4]; Example 7: Compound D 60 mg/kg, E and F 20 mg/kg, + G-CSF vs vehicle + G-CSF",did not significantly alter
same,total number of myeloid progenitors (LKS−) mobilized,"[4]; Example 7: D 60 mg/kg, E and F 20 mg/kg, + G-CSF vs vehicle + G-CSF, FIGS. 12A-B",significant increase
same,number of white blood cells per mL of blood,"[5]; Example 7: D 60 mg/kg, E 20 mg/kg, + G-CSF vs vehicle + G-CSF",significant increase
same,increase in spleen weight,"[6]; Example 7: D 60 mg/kg, E and F 20 mg/kg, + G-CSF vs vehicle + G-CSF",approximately 2 fold
"N#Cc1nc(C(=O)NCC(=O)O)c(O)c2c(Oc3ccccc3)cccc12 [Compound B, [(1-Cyano-4-hydroxy-5-phenoxy-isoquinoline-3-carbonyl)-amino]-acetic acid]",number of CFUs mobilized to the spleen,[1]; [8],statistically significant
same,number of colony forming units mobilized to the blood,[1]; [8],no significant change
same,"total number of CFUs mobilized, relative to Compound A or Compound C with G-CSF","[1]; Example 6: 20 mg/kg + G-CSF, FIG. 10",comparable
same,mobilization of myeloid progenitors (LKS−) to the blood,[4]; Example 6: 20 mg/kg + G-CSF vs vehicle + G-CSF,did not significantly alter
same,increase in mobilization of myeloid progenitors (LKS−) to the spleen,[4]; [9],approximately 3 fold
same,increase in number of HSPCs (LSK48+ and LSK) mobilized to the spleen,[4]; [9],approximately 2 fold
same,increase in number of phenotypic HSCs (LSK48−150+) mobilized to the spleen,[4]; [9],approximately 2 fold
same,total number of phenotypic HSPCs in the bone marrow,"[4]; Example 6: 20 mg/kg once daily 3 days + rhuG-CSF 125 μg/kg twice daily 4 days vs vehicle + G-CSF, FIGS. 6A-B",did not significantly alter
same,increase in total number of HSPCs (LSK48+ and LSK) mobilized from the bone marrow,[4]; [10],approximately 2 fold
same,increase in total number of myeloid progenitors (LKS−) mobilized from the bone marrow,[4]; [10],approximately 6 fold
same,increase in total number of phenotypic HSCs (LSK48−150+) mobilized from the bone marrow,[4]; [10],approximately 2 fold
same,number of white blood cells per mL of blood,[5]; [11],significant increase
same,increase in spleen weight,[6]; [11],approximately 2 fold
B1,chemotherapy-treated patients who fail to reach the minimal threshold of 2×10^6 CD34+ cells/kg,"[2]; autologous setting, in response to G-CSF, reference (1)",30-60%
